# Results published in ChEMBL document CHEMBL5678800 (Mol Cancer Ther, 2009).
# pIC50: −log10 of the molar value. Calls of active or inactive are those of the source. No cut-off for these calls is given here.
# Tests used:
# [1] = biological target: T1, Protein kinase C zeta type (Homo sapiens, UniProt Q05513); experiment: Inhibition of recombinant PKCzeta (unknown origin) incubated for 60 mins in presence of ATP by electrophoretic caliper fluorescence analysis
# T1 sequence (Q05513 whole entry): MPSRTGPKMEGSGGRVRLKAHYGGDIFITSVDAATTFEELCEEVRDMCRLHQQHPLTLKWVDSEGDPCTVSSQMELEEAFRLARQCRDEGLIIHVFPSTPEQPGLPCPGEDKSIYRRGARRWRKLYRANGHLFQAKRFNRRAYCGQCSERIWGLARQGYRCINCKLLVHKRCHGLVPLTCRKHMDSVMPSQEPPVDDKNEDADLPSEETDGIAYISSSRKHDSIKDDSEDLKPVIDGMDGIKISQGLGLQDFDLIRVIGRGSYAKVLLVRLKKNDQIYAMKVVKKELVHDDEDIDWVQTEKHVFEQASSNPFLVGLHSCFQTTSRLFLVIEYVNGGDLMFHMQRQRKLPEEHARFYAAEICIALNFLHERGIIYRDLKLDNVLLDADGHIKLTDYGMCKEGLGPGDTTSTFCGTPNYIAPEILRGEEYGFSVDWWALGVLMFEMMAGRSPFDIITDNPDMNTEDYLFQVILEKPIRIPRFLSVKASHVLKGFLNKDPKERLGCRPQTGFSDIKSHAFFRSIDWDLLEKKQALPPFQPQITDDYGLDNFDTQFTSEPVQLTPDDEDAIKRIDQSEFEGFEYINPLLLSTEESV
# Rh41 [2] = experiment: Induction of cell cycle arrest in human Rh41 cells assessed as accumulation of cells at sub-G1 phase at 10x IC50 incubated for 24 hrs by propidium iodide staining based flow cytometry analysis (reference value: […])
# GEO [3] = experiment: Antitumor activity against human GEO cells xenografted in nude mouse assessed as tumor growth delay time at 6.25 mg/kg, po administered for 3 days in presence of cetuximab at 0.125 mg/kg relative to control; type: functional; conditions: time 3 day
# GEO [4] = experiment: Antitumor activity against human GEO cells xenografted in nude mouse assessed as tumor growth inhibition at 12.5 mg/kg, po administered for 3 days in presence of cetuximab at 0.125 mg/kg relative to control; type: functional; conditions: 72 h, time 3 day, read-out: TGI
# [5] = Toxicity in nude mouse xenografted with human GEO cells assessed as body weight loss at 12.5 mg/kg, po administered for 3 days in presence of cetuximab at 0.125 mg/kg relative to control; type: organism-based; conditions: in vivo, 72 h, time 3 day
# GEO [6] = experiment: Antitumor activity against human GEO cells xenografted in nude mouse assessed as tumor growth delay time at 6.25 mg/kg, po administered for 3 days in presence of cetuximab at 0.25 mg/kg relative to control; type: functional; conditions: time 3 day
# [7] = Toxicity in nude mouse xenografted with human GEO cells assessed as mortality at 25 mg/kg, po administered for 3 days in presence of cetuximab at 0.25 mg/kg relative to control; type: organism-based; conditions: in vivo, time 3 day
# Rh41 [8] = experiment: Antitumor activity against human Rh41 cells xenografted in nude mouse assessed as tumor growth inhibition at 12 to 50 mg/kg, po administered for 21 days relative to control; type: functional; conditions: dose 12-50 mg/kg, time 21 day
# JJN-3 = experiment: Antitumor activity against human JJN-3 cells xenografted in nude mouse assessed as tumor growth inhibition at 25 mg/kg, po administered for 14 days relative to control; type: functional; conditions: JJN-3, 336 h, time 14 day, read-out: TGI
# GEO [9] = experiment: Antitumor activity against human GEO cells xenografted in nude mouse assessed as tumor growth inhibition at 6.25 mg/kg, po administered for 3 days in presence of cetuximab at 0.25 mg/kg relative to control; type: functional; conditions: 72 h, time 3 day, read-out: TGI
# IGF-1R-Sal = experiment: In vivo inhibition of IGF-1R phosphorylation in mouse IGF-1R-Sal cells xenografted in nude mouse at 12.5 mg/kg, po administered for 30 mins by Western blotting analysis; type: functional, organism-based
# [10] = Plasma concentration in nude mouse xenografted with mouse IGF-1R-Sal cells at 12.5 mg/kg, po administered for 2 hrs by LC-MS/MS analysis; type: ADME, organism-based
# GEO [11] = experiment: Antitumor activity against human GEO cells xenografted in nude mouse assessed as tumor growth inhibition at 25 mg/kg, po administered for 14 days relative to control; type: functional; conditions: 336 h, time 14 day, read-out: TGI
# GEO [12] = experiment: Antitumor activity against human GEO cells xenografted in nude mouse assessed as tumor growth delay time at 25 mg/kg, po administered for 3 days in presence of cetuximab at 0.25 mg/kg relative to control; type: functional; conditions: time 3 day
# GEO [13] = experiment: Antitumor activity against human GEO cells xenografted in nude mouse assessed as tumor growth delay time at 25 mg/kg, po administered for 17 days relative to control; type: functional; conditions: time 17 day
# [14] = Toxicity in nude mouse xenografted with human GEO cells assessed as body weight loss at 6.25 mg/kg, po administered for 3 days in presence of cetuximab at 0.125 mg/kg relative to control; type: organism-based; conditions: in vivo, 72 h, time 3 day
# GEO [15] = experiment: Antitumor activity against human GEO cells xenografted in nude mouse assessed as tumor growth delay time at 25 mg/kg, po administered for 3 days in presence of cetuximab at 0.125 mg/kg relative to control; type: functional; conditions: time 3 day
# Rh41 [16] = experiment: Induction of cell cycle arrest in human Rh41 cells assessed as accumulation of cells at G2/M phase by measuring >4N DNA content at 10x IC50 incubated for 24 hrs by propidium iodide staining based flow cytometry analysis; type: functional
# [17] = Toxicity in nude mouse xenografted with human GEO cells assessed as mortality at 12.5 mg/kg, po administered for 3 days in presence of cetuximab at 0.125 mg/kg relative to control; type: organism-based; conditions: in vivo, time 3 day
# [18] = Toxicity in nude mouse xenografted with human GEO cells assessed as body weight loss at 12.5 mg/kg, po administered for 17 days; type: organism-based; conditions: in vivo, 408 h, time 17 day
# GEO [19] = experiment: Antitumor activity against human GEO cells xenografted in nude mouse assessed as tumor growth inhibition at 25 mg/kg, po administered for 3 days in presence of cetuximab at 0.125 mg/kg relative to control; type: functional; conditions: 72 h, time 3 day, read-out: TGI
# [20] = Antitumor activity against mouse IGF-1R-Sal cells xenografted in nude mouse assessed as tumor growth inhibition at 6.25 to 150 mg/kg, po administered for 4 days relative to control; type: functional; conditions: dose 6.25-150 mg/kg, time 4 day
# [21] = biological target: Protein kinase C alpha type (Homo sapiens, UniProt P17252); experiment: Inhibition of recombinant PKCalpha (unknown origin) incubated for 60 mins in presence of ATP by electrophoretic caliper fluorescence analysis
# [22] = Toxicity in nude mouse xenografted with human GEO cells assessed as mortality at 12.5 mg/kg, po administered for 17 days relative to control; type: organism-based; conditions: in vivo, time 17 day
# [23] = Toxicity in nude mouse xenografted with human GEO cells assessed as body weight loss at 25 mg/kg, po administered for 3 days in presence of cetuximab at 0.25 mg/kg relative to control; type: organism-based; conditions: in vivo, 72 h, time 3 day
# GEO [24] = experiment: Antitumor activity against human GEO cells xenografted in nude mouse assessed as tumor growth inhibition at 6.25 mg/kg, po administered for 17 days relative to control; type: functional; conditions: 408 h, time 17 day, read-out: TGI
smiles,measurement,setting,value
C[C@@]1(C(=O)Nc2ccc(F)nc2)CCCN1c1nc(Nc2cc(C3CC3)n[nH]2)c2cccn2n1 [BMS-754807],pIC50,[1],< 4.30
same,Activity,Rh41 [2],23.1%
same,Time,GEO [3],20 days
same,inhibition in vivo at 12.5 mg/kg,GEO [4],86%
same,Activity,[5],0.4 g
same,Time,GEO [6],23 days
same,mortality at 72 h,[7],0%
same,TGI,Rh41 [8],45%
same,inhibition in vivo at 25 mg/kg,JJN-3,53%
same,inhibition in vivo at 6.25 mg/kg,GEO [9],86%
same,inhibition,IGF-1R-Sal,Active
same,concentration at 2 h,[10],29 nM
same,inhibition in vivo at 25 mg/kg,GEO [11],56%
same,Time,GEO [12],24 days
same,Time,GEO [13],7 days
same,Activity,[14],1.2 g
same,Time,GEO [15],21 days
same,Activity,Rh41 [16],Active
same,mortality at 72 h,[17],0%
same,Activity,[18],-0.8 g
same,inhibition in vivo at 25 mg/kg,GEO [19],89%
same,TGI,[20],67%
same,pIC50,[21],5.60
same,mortality at 408 h,[22],0%
same,Activity,[23],1.5 g
same,inhibition in vivo at 6.25 mg/kg,GEO [24],24%
